As usually defined, the MIC is the smallest concentration in the dilution series that meets the test's criterion for growth inhibition. Low values mean a more susceptible organism, high ones a less susceptible organism.

These results are taken from DBAASP.

Converted amounts (≈) assume the structure as drawn.

Among the test systems are Serratia marcescens Db11; Escherichia coli D22; Aerococcus viridans; Pediococcus acidilactici; Bacillus subtilis QB935; Listeria monocytogenes; Bacillus thuringiensis; Alcaligenes faecalis; Bacillus megaterium; Micrococcus luteus A270; Staphylococcus aureus; Salmonella typhimurium; Klebsiella pneumoniae.
What all share (experiment): ≥ marks a high value that may be exact or a test limit, other limits are often not marked, values filed in µg/mL are converted to µM
In experiment [1] the test system is Staphylococcus aureus PCM 1944.
In experiment [2] the test system is Escherichia coli PCM 2057.
The subject of experiment [3] is Staphylococcus saprophyticus.
The test system of experiment [4] is Pseudomonas aeruginosa ATCC 82118.
Experiment [5] deals with Enterobacter cloacae beta-12.
The subject of experiment [6] is Micrococcus luteus ATCC 9341.
Experiment [7] concerns Staphylococcus epidermidis ATCC 12228.
Experiment [8] relates to Corynebacterium diphtheriae ATCC 8024.
For experiment [9], the system named is Staphylococcus aureus ATCC 6538.
Experiment [10] deals with Shigella flexneri ATCC 203.
Experiment [11] has as its system Pseudomonas aeruginosa ATCC 9027.
The test system of experiment [12] is Escherichia coli ATCC 2592.
The test system of experiment [13] is Bacillus subtilis ATCC 6633.
Experiment [14] relates to Candida albicans ATCC 36232.

As to `CC[C@H](C)[C@@H]1NC(=O)[C@H](CO)NC(=O)[C@H](CCCCN)NC(=O)[C@@H](NC(=O)[C@H](CCCN=C(N)N)NC(=O)[C@H](Cc2ccccc2)NC(=O)[C@H](Cc2cnc[nH]2)NC(=O)[C@@H](NC(=O)[C@H](CCCCN)NC(=O)[C@H](Cc2ccccc2)NC(=O)[C@@H]2CCCN2C(=O)[C@@H](NC(=O)[C@H](CC(N)=O)NC(=O)[C@H](C)NC(=O)[C@H](C)N)[C@@H](C)CC)C(C)C)CSSC[C@@H](C(=O)O)NC(=O)[C@H](Cc2ccccc2)NC1=O` [AANIPFKVHFRCKSIFC], the MIC in experiment [1] and in [2] was not below 505 µM throughout.
For the molecule `CC[C@H](C)[C@@H]1NC(=O)[C@H](CC(=O)O)NC(=O)[C@@H](NC(=O)[C@@H](NC(=O)[C@H](C)N)[C@@H](C)O)CSSC[C@@H]2NC(=O)[C@H](CCC(N)=O)NC(=O)CNC(=O)CNC(=O)[C@H](CCCCN)NC(=O)[C@H](Cc3ccc(O)cc3)NC(=O)CNC(=O)[C@H](CCCCN)NC(=O)[C@H]([C@@H](C)CC)NC(=O)[C@H](C(C)C)NC(=O)[C@@H]3CSSC[C@@H](C(=O)N[C@@H](CCCN=C(N)N)C(=O)N[C@@H](CCCN=C(N)N)C(=O)O)NC(=O)[C@H](Cc4cnc[nH]4)NC(=O)[C@H](CSSC[C@H](NC(=O)CNC(=O)[C@H](C)NC(=O)[C@H](Cc4cnc[nH]4)NC(=O)[C@H](CC(N)=O)NC(=O)[C@@H]4CCCN4C(=O)[C@H]([C@@H](C)O)NC(=O)[C@H](C(C)C)NC(=O)[C@H](Cc4c[nH]c5ccccc45)NC(=O)[C@H](CCC(N)=O)NC(=O)[C@H](CO)NC(=O)[C@H](CCC(N)=O)NC(=O)[C@H](Cc4ccccc4)NC(=O)[C@H](CO)NC(=O)[C@H](CC(C)C)NC1=O)C(=O)N[C@@H](C)C(=O)N[C@@H](CC(C)C)C(=O)N[C@@H](Cc1cnc[nH]1)C(=O)N3)NC(=O)[C@H](C(C)C)NC(=O)[C@H]([C@@H](C)O)NC(=O)[C@H]([C@@H](C)CC)NC(=O)[C@H](CCCCN)NC2=O` [ATCDILSFQSQWVTPNHAGCALHCVIKGYKGGQCKITVCHCRR], the MIC is 5 µM (≈ 23.6 µg/mL) in the experiment with Serratia marcescens Db11; 1.77 µM (≈ 8.36 µg/mL) in experiment [3]; 3.54 µM (≈ 16.7 µg/mL) against Escherichia coli D22; 5 µM (≈ 23.6 µg/mL) in experiment [4]; 0.424 µM (≈ 2.01 µg/mL) with Aerococcus viridans; 3.54 µM (≈ 16.7 µg/mL) with Pediococcus acidilactici. Further, the MIC in the experiment on Bacillus subtilis QB935 came out at 3.54 µM (≈ 16.7 µg/mL); in experiment [5] it was 5 µM (≈ 23.6 µg/mL); in the experiment with Listeria monocytogenes, 5 µM (≈ 23.6 µg/mL); in the experiment with Bacillus thuringiensis, 5 µM (≈ 23.6 µg/mL); in the experiment with Alcaligenes faecalis, 5 µM (≈ 23.6 µg/mL); against Bacillus megaterium, 0.212 µM (≈ 1 µg/mL). Also, the MIC against Micrococcus luteus A270 is 0.212 µM (≈ 1 µg/mL); against Staphylococcus aureus, 0.88 µM (≈ 4.16 µg/mL); against Salmonella typhimurium it was 5 µM (≈ 23.6 µg/mL); with Klebsiella pneumoniae, more than 5 µM.
In the case of `CC(C)[C@H](NC(=O)[C@H](CS)NC(=O)[C@@H](NC(=O)[C@H](CCCN=C(N)N)NC(=O)[C@H](CCCCN)NC(=O)CNC(=O)[C@@H](N)CC(N)=O)C(C)C)C(=O)N[C@@H](CS)C(=O)N[C@@H](CCCN=C(N)N)C(N)=O` [NGKRVCVCR], the MIC is not below 96.7 µM in [6]; more than 96.7 µM in experiment [7]; not below 96.7 µM in experiment [8]; more than 96.7 µM in experiment [9]; not below 96.7 µM in experiment [10]; more than 96.7 µM in [11]. The MIC in experiment [12] was not below 96.7 µM; with Staphylococcus aureus, more than 96.7 µM; in [13], not below 96.7 µM; in experiment [14], not below 96.7 µM.
